Test results: patent US10285989B2, “Pyrimidinone amide compounds as PDE2 inhibitors” (Merck Sharp & Dohme Corp., priority 2015, dated 2019)
Where two headings read alike, the source gives them in different places.

Key:
[1] = target: P-glycoprotein (P-gp, rat Mdr1a) (Rattus norvegicus, UniProt Q6PSM0); experiment: P-gp transport, experimental BA/AB ratio, rat LLC-Mdr1a; assay type: in vitro ADME; conditions: LLC-PK1; rat LLC-Mdrla; 1 μM substrate concentration
Text: (§1) See Doan et al. “Passive permeability and P-glycoprotein-mediated efflux differentiate central nervous system (CNS) and non-CNS marketed drugs”, J. Pharm. Exper. […] Desirable human BA/AB ratio is less than 2.0. […] See, for example, Desai, et al. Integration of in Silico and in Vitro Tools for Scaffold Optimization during Drug Discovery: Predicting P-glycoprotein Efflux” Mol. Pharmac.

Rhesus PDE2A3 = Rhesus PDE2A3 (Macaca mulatta, UniProt B3VTJ2); experiment: PDE2 fluorescence polarization (IMAP FP) inhibition assay, rhesus PDE2A3; assay type: biochemical, rhesus macaque
Sequence of Rhesus PDE2A3 (B3VTJ2 1-941): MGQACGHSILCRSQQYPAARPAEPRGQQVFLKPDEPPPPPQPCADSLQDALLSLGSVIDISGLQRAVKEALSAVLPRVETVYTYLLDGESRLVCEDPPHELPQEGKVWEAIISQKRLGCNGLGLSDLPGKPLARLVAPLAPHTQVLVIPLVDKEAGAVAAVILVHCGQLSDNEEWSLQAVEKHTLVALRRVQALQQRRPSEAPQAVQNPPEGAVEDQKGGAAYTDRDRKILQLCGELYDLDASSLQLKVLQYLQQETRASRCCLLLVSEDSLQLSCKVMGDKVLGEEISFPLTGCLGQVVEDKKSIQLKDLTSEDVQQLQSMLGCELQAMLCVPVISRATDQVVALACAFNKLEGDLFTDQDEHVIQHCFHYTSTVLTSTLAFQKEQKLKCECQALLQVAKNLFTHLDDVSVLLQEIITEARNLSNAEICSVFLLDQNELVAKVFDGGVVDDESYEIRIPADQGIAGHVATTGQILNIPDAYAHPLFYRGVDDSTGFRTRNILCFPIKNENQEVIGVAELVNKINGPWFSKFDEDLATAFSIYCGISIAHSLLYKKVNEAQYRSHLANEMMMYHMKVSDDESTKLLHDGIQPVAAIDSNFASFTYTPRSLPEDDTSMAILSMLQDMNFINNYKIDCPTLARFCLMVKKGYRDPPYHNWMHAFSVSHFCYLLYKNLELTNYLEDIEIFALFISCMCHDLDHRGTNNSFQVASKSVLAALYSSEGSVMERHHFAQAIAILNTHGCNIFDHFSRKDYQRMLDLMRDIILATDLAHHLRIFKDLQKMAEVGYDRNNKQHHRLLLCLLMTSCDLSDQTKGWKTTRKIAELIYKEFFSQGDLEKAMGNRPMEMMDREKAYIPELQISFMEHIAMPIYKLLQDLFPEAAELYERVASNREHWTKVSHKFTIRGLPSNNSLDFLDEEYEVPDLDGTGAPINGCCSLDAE

human PDE2A1 = human PDE2A1 (Homo sapiens (Human), UniProt O00408); experiment: PDE2 IMAP FP inhibition assay, human PDE2A1 (selectivity panel format); assay type: biochemical
Sequence of human PDE2A1 (O00408 other isoform, or with tags, fused parts or gaps): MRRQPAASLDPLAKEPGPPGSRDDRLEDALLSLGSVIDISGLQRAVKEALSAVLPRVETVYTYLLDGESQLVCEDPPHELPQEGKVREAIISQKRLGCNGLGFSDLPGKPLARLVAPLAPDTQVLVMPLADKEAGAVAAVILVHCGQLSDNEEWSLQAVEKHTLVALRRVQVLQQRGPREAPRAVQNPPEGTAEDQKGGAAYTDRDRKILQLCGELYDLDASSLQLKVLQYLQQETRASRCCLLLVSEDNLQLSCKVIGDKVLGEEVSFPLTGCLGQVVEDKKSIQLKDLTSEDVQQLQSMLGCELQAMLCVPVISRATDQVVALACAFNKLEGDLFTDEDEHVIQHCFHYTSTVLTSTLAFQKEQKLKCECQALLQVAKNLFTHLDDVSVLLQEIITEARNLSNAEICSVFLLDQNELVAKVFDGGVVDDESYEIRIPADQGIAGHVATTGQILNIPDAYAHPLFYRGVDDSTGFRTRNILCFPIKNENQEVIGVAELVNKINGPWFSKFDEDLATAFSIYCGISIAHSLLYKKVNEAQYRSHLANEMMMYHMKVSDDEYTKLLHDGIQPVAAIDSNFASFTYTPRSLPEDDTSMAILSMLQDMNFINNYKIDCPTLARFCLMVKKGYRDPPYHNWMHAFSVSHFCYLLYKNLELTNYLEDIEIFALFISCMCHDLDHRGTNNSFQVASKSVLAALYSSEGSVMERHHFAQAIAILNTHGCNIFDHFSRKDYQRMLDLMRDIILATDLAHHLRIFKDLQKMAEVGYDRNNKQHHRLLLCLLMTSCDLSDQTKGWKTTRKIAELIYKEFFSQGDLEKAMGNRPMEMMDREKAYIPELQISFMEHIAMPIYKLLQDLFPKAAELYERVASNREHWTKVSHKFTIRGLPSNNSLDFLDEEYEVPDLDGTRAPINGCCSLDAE
Outline: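 IMAP fluorescence polarization assay; substrate 50 nM FAM-cAMP with 1000 nM cGMP, enzyme at ~20% conversion, in 10 mM Tris pH 7.2, 10 mM MgCl2, 1 mM DTT, 0.01% Tween-20. 60 min room temperature, stopped with IMAP binding reagent, 1 h, then parallel/perpendicular fluorescence read.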

P-glycoprotein (P-gp) = P-glycoprotein (P-gp) (Homo sapiens (Human), UniProt P08183); experiment: P-gp transport, experimental BA/AB ratio, human; assay type: in vitro ADME; conditions: LLC-PK1, 1 μM substrate concentration
Sequence of P-glycoprotein (P-gp) (P08183 whole entry): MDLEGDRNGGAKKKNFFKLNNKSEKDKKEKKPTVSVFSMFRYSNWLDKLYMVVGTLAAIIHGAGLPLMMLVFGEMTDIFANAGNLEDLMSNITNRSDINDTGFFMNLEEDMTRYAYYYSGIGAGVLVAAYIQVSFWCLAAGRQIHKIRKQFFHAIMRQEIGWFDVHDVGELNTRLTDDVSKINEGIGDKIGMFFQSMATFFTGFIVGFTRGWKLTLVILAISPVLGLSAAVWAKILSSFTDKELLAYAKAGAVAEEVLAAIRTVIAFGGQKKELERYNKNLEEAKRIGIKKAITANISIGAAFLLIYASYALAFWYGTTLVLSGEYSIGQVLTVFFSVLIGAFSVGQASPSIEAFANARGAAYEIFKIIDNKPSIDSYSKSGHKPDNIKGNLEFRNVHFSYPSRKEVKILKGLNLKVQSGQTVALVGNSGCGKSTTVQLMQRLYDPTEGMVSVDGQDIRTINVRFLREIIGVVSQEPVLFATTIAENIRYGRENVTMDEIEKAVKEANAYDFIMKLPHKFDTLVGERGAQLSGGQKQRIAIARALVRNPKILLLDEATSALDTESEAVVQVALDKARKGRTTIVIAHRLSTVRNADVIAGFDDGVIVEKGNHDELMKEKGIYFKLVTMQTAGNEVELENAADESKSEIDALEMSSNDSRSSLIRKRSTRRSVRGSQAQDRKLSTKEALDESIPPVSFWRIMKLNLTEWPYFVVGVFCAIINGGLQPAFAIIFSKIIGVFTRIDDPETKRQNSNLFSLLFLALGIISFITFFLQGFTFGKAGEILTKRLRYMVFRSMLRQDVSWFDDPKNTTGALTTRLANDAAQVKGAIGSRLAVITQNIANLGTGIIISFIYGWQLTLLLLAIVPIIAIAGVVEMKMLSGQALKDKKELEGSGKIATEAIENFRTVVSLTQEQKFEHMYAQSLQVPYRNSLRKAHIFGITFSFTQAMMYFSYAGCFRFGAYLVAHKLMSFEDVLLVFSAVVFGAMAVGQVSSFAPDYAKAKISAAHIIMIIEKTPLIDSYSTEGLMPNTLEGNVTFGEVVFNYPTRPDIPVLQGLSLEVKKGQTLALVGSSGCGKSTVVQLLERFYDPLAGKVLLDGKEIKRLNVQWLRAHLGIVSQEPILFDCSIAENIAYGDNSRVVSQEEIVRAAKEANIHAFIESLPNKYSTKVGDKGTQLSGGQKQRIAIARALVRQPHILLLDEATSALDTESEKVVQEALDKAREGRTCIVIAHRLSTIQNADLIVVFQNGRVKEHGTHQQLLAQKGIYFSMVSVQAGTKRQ
Text: as §1

[2] = Lab A, read-out: Rhesus PDE2 Ki (nM) - Lab A
[3] = Lab A, read-out: Human PDE2 Ki (nM) - Lab A
[4] = Lab B, read-out: Rhesus PDE2 Ki (nM) - Lab B
[5] = Lab B, read-out: Human PDE2 Ki (nM) - Lab B

Sequence of P-glycoprotein (P-gp, rat Mdr1a) (Q6PSM0 1-1272): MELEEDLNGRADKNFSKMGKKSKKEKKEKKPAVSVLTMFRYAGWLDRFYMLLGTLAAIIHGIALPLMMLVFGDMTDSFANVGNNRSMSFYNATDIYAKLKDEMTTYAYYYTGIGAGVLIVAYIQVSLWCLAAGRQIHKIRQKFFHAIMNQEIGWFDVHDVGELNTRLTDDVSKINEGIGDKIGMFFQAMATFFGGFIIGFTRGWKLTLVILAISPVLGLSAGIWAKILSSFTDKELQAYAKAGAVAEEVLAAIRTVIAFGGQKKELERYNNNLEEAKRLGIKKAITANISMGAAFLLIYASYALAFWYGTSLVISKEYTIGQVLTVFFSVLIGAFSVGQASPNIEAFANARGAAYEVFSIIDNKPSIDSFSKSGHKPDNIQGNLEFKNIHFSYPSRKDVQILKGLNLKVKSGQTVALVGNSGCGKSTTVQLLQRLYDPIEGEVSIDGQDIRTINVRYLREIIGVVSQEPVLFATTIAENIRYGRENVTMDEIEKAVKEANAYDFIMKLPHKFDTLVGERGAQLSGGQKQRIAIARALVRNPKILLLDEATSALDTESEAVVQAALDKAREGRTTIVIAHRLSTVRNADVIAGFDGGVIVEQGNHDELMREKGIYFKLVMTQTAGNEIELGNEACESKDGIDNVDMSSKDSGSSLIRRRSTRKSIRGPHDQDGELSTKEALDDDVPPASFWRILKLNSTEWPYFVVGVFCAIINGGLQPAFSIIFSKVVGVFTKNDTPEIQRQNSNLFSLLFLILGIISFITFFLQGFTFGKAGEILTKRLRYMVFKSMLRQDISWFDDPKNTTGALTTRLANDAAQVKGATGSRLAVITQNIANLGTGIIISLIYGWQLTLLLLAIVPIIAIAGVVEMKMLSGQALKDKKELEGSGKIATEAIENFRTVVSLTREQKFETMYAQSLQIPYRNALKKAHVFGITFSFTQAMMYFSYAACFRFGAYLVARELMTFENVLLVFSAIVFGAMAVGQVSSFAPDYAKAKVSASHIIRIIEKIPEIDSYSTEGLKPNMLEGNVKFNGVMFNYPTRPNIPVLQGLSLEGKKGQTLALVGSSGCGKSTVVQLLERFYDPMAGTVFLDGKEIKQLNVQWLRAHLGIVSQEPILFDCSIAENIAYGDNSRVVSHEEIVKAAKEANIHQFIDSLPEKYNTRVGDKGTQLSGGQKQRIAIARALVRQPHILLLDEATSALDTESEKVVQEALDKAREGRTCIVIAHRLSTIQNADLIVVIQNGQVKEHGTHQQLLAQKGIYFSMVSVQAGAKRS

Row | efflux ratio at 1 μM [1] | Ki (Rhesus PDE2A3; [2]) | Ki (human PDE2A1; [3]) | efflux ratio at 1 μM (P-glycoprotein (P-gp)) | Ki (Rhesus PDE2A3; [4]) | Ki (human PDE2A1; [5]) | SMILES
1 | 3.2 | 2.5 nM | 1.7 nM | 0.5 |  |  | C[C@@H](NC(=O)c1cc(=O)[nH]c(N2CCCC2)n1)c1ccc(C(F)(F)F)cc1 [Example 6, (R)-6-oxo-2-(pyrrolidin-1-yl)-N-(1-(4-(trifluoromethyl)phenyl)ethyl)-1,6-dihydropyrimidine-4-carboxamide]
2 | 7.6 | 27 nM | 16 nM | 1.4 |  |  | C[C@@H](NC(=O)c1cc(=O)[nH]c(N2CC(F)C2)n1)c1ccc(C(F)(F)F)cc1 [Example 23, 2-(3-Fluoroazetidin-1-yl)-6-oxo-N-{(1R)-1-[4-(trifluoromethyl)phenyl]ethyl}-1,6-dihydropyrimidine-4-carboxamide]
3 | 4.5 | 1.4 nM | 0.34 nM | 0.9 |  |  | O=C(N[C@@H](c1ccc(C(F)(F)F)cc1)C1CC1)c1cc(=O)[nH]c(N2CCCC2)n1 [Example 26]
4 | 7 | 0.58 nM | 0.21 nM | 0.8 |  |  | O=C(N[C@@H](c1ccc(SC(F)(F)F)cc1)C1CC1)c1cc(=O)[nH]c(N2CCCC2)n1 [Example 27, N-[(R)-cyclopropyl{4-[(trifluoromethyl)sulfanyl]phenyl}methyl]-6-oxo-2-pyrrolidin-1-yl-1,6-dihydropyrimidine-4-carboxamide]
5 | 2.6 | 0.19 nM | ≤ 5.1 nM | 0.4 | 0.22 nM | 0.37 nM | CC(C)[C@@H](NC(=O)c1cc(=O)[nH]c(N(C)C)n1)c1ccc(SC(F)(F)F)cc1 [Example 30, 2-(dimethylamino)-N-[(1R)-2-methyl-1-{4-[(trifluoromethyl)sulfanyl]phenyl}propyl]-6-oxo-1,6-dihydropyrimidine-4-carboxamide]
6 | 12.7 |  |  | 2 | 0.46 nM | 0.39 nM | CN(C)c1nc(C(=O)N[C@@H](c2ccc(OC(F)F)cc2)C(C)(C)C)cc(=O)[nH]1 [Example 34, N-{(1R)-1-[4-(difluoromethoxy)phenyl]-2,2-dimethylpropyl}-2-(dimethylamino)-6-oxo-1,6-dihydropyrimidine-4-carboxamide]
7 | 3.6 |  |  | 0.5 | 0.12 nM | 0.11 nM | CN(C)c1nc(C(=O)N[C@@H](c2ccc(C3CC3)cc2)C(C)(C)C)cc(=O)[nH]1 [Example 35, N-[(1R)-1-(4-cyclopropylphenyl)-2,2-dimethylpropyl]-2-(dimelhylamino)-6-oxo-1,6-dihydropyrimidine-4-carboxamide]
8 | 2.4 |  |  | 0.5 | 0.87 nM | 1.02 nM | C[C@@H](NC(=O)c1cc(=O)[nH]c(N(C)C)n1)c1ccc(C2CC2)c(F)c1 [Example 40, N-[(1R)-1-(4-cyclopropyl-3-fluorophenyl)ethyl]-2-(dimethylamino)-6-oxo-1,6-dihydropyrimidine-4-carboxamide]
9 | 3 |  |  | 0.7 | 0.45 nM | 0.44 nM | CN(C)c1nc(C(=O)N[C@@H](c2ccc(C(F)(F)F)c(F)c2)C2(C)CC2)cc(=O)[nH]1 [Example 42, 2-(dimethylamino)-N-[(R)-[3-fluoro-4-(trifluoromethyl)phenyl](1-methylcyclopropyl)methyl]-6-oxo-1,6-dihydropyrimidine-4-carboxamide]
10 | 2.3 |  |  | 0.7 | 0.23 nM | 0.32 nM | CN(C)c1nc(C(=O)N[C@@H](c2ccc(C(F)(F)F)cc2)C2(C)CC2)cc(=O)[nH]1 [Example 43, 2-(dimethylamino)-N-{(R)-(1-methylcyclopropyl)[4-(trifluoromethyl)phenyl]methyl}-6-oxo-1,6-dihydropyrimidine-4-carboxamide]
11 | 2.1 |  |  | 0.7 | 1.6 nM | 1.5 nM | CN(C)c1nc(C(=O)N[C@@H](c2ccc(C(C)(C)C)cc2)C2(C)CC2)cc(=O)[nH]1 [Example 44, N-[(R)-(4-tert-butylphenyl)(1-methylcyclopropyl)methyl]-2-(dimethylamino)-6-oxo-1,6-dihydropyrimidine-4-carboxamide]
12 | 2.1 |  |  | 0.6 | 0.43 nM | 0.44 nM | CC(C)[C@@H](NC(=O)c1cc(=O)[nH]c(N(C)C)n1)c1ccc(C(F)(F)F)cc1 [Example 47, 2-(dimethylamino)-N-{(1R)-2-methyl-1-[4-(trifluoromethyl)phenyl]propyl}-6-oxo-1,6-dihydropyrimidine-4-carboxamide]
13 | 4.8 |  |  | 1.4 | 0.32 nM | 0.38 nM | CN(C)c1nc(C(=O)N[C@@H](c2ccc(OC(F)F)c(F)c2)C(C)(C)C)cc(=O)[nH]1 [Example 54, N-{(1R)-1-[4-(difluoromethoxy)-3-fluorophenyl]-2,2-dimethylpropyl}-2-(dimethylamino)-6-oxo-1,6-dihydropyrimidine-4-carboxamide]
14 | 3.4 |  |  | 0.6 | 1.4 nM | 0.98 nM | CN(C)c1nc(C(=O)N[C@@H](c2ccc(OC(F)F)c(F)c2)C2(C)CC2)cc(=O)[nH]1 [Example 55, N-[(R)-[4-(difluoromethoxy)-3-fluorophenyl](1-methylcyclopropyl)methyl]-2-(dimethylamino)-6-oxo-1,6-dihydropyrimidine-4-carboxamide]

Second part, the compound before the results:

Row | SMILES | efflux ratio at 1 μM [1] | Ki (Rhesus PDE2A3; [2]) | Ki (human PDE2A1; [3]) | efflux ratio at 1 μM (P-glycoprotein (P-gp)) | Ki (Rhesus PDE2A3; [4]) | Ki (human PDE2A1; [5])
15 | C[C@@H](NC(=O)c1cc(=O)[nH]c(N2CCC2)n1)c1ccc(C(F)(F)F)cc1 [Example 10, (R)-2-(azetidin-1-yl)-6-oxo-N-(1-(4-(trifluoromethyl)phenyl)ethyl)-1,6-dihydropyrimidine-4-carboxamide] | 3.1 | 8.5 nM | 8.2 nM | 0.5 |  | 
16 | C[C@@H](NC(=O)c1cc(=O)[nH]c(N2CC[C@H](F)C2)n1)c1ccc(C(F)(F)F)cc1 [Example 12, 2-((S)-3-fluoropyrrolidin-1-yl)-6-oxo-N—((R)-1-(4-(trifluoromethyl)phenyl)ethyl)-1,6-dihydropyrimidine-4-carboxamide] | 9 | 4.5 nM | 1.8 nM | 0.7 |  | 
17 | C[C@@H](NC(=O)c1cc(=O)[nH]c(N2CCC(F)(F)C2)n1)c1ccc(C(F)(F)F)cc1 [Example 13, (R)-2-(3,3-difluoropyrrolidin-1-yl)-6-oxo-N-(1-(4-(trifluoromethyl)phenyl)ethyl)-16-dihydropyrimidine-4-carboxamide] | 5.9 | 13 nM | 9.2 nM | 0.6 |  | 
18 | CN(C)c1nc(C(=O)N[C@@H](c2ccc(CC(F)(F)F)cc2)C(C)(C)C)cc(=O)[nH]1 [Example 31, 2-(dimethylamino)-N-{(1R)-2,2-dimethyl-1-[4-(2,2,2-trifluoroethyl)phenyl]propyl}-6-oxo-1,6-dihydropyrimidine-4-carboxamide] | 9.7 |  |  | 1.5 | 0.42 nM | 0.51 nM
19 | CN(C)c1nc(C(=O)N[C@@H](c2ccc(C(F)(F)F)cc2F)C(C)(C)C)cc(=O)[nH]1 [Example 37, 2-(dimethylamino)-N-{(1R)-1-[2-fluoro-4-(trifluoromethyl)phenyl]-2,2-dimethylpropyl}-6-oxo-1,6-dihydropyrimidine-4-carboxamide] | 1.2 |  |  | 1 | 0.11 nM | 0.13 nM
20 | CC(C)[C@@H](NC(=O)c1cc(=O)[nH]c(N(C)C)n1)c1ccc(C2CC2)c(F)c1 [Example 41, N-[(1R)-1-(4-cyclopropyl-3-fluorophenyl)-2-methylpropyl]-2-(dimethylamino)-6-oxo-1,6-dihydropyrimidine-4-carboxamide] | 3.6 |  |  | 0.4 | 0.31 nM | 0.36 nM
21 | CN(C)c1nc(C(=O)NC2(c3ccc(S(F)(F)(F)(F)F)cc3)CC2)cc(=O)[nH]1 [Example 45, 2-(dimethylamino)-6-oxo-N-{1-[4-(pentafluoro-λ^6-sulfanyl)phenyl]cyclopropyl}-1,6-dihydropyrimidine-4-carboxamide] | 10.1 |  |  | 0.6 | 2.1 nM | 1.7 nM
22 | CC(C)[C@@H](NC(=O)c1cc(=O)[nH]c(N(C)C)n1)c1ccc(OC(F)F)c(F)c1 [Example 48, N-{(1R)-1-[4-(difluoromethoxy)-3-fluorophenyl]-2-methylpropyl}-2-(dimethylamino)-6-oxo-1,6-dihydropyrimidine-4-carboxamide] | 6.4 |  |  | 1.5 | 1.9 nM | 1.7 nM
23 | CN(C)c1nc(C(=O)N[C@@H](c2ccc(C3CC3)c(F)c2)C2CC2)cc(=O)[nH]1 [Example 56, N-[(R)-cyclopropyl(4-cyclopropyl-3-fluorophenyl)methyl]-2-(dimethylamino)-6-oxo-1,6-dihydropyrimidine-4-carboxamide] | 1.7 |  |  | 0.3 | 0.71 nM | 0.51 nM
